# From patent US10835537B2, “Combination therapies for treatment of cancer” (Sumitomo Dainippon Pharma Oncology, Inc., priority 2015, dated 2020)
# Columns and labels:
# MCL-1 = MCL-1 expression by western blotting in MV4-11 cells; assay type: cell-based
# Description: An AML cell line, MV-4-11, expresses MCL-1. MCL-1 is a key anti-apoptotic protein in MV-4-11 cells. Alvocidib, a CDK9 inhibitor, lowers the expression of MCL-1, which is already well documented in the literature. Alvocidib down-regulates MCL-1 in a dose dependent manner (FIG. 1A). The dose dependence is observed by monitoring the relative expression of MCL-1 compared to β-actin when cells are dosed with alvocidib at concentrations of 0-8 μM. MV4-11 cells were treated with Alvocidib for 16 hrs in vitro, Following treatment, cells were harvested and prepared using standard western blotting technique for immuno-detection of MCL-1 and β-actin expression.
# In addition, alvocidib also down-regulates MCL-1 in a time-dependent manner (FIG. 1B). The time dependence is observed by monitoring the relative expression of MCL-1 compared top-actin over time. The relative expression of MCL-1 was measured at 0.5-48 hour time points after dosing with 80 nM of alvocidib.
# MV4-11 cells were treated with 80 nM Alvocidib in vitro for the times indicated. Following treatment, cells were harvested and prepared using standard western blotting technique for immunodetection of MCL-1 and β-actin expression.
# MV 4-11 cells = experiment: Cell viability, Cell titer-glo assay; assay type: cell-based; details: for EC50: Homo sapiens, MV4-11, MV 4-11 cells, wash
# Description: MV 4-11 cells were dosed first with alvocidib (80 nM) or DMSO for 24 hours followed by a wash step. Following the wash step, the cells were dosed with azacitidine (30 μM to 0.001 μM) for an additional 72 hours, Measurement of cell viability was taken at 96 hours from the initial dose (72 hours after the wash step) and normalized to data collected for cells dosed with alvocidib only. Cell viability was then assessed in a Cell titer-glo assay, according to manufacturer protocol. Cell viability was then plotted against concentration on a logarithmic scale (FIG. 2).
# FIGS. 5A and 5B present data from combination treatment of Alvocidib and decitabine in MV4-11 cells. MV4-11 cells were first treated for 96 hours with alvocidib+decitabine according to the general procedures of Example 2 at the concentrations indicated in FIG. 5A. […] Here, a change of nearly 10-fold in the IC50 (μM) of decitabine with the addition of alvocidib (100 nM) was observed when alvocidib was administered prior to decitabine.
structure (smiles),measurement,setting,value
CN1CC[C@H](c2c(O)cc(O)c3c(=O)cc(-c4ccccc4Cl)oc23)[C@H](O)C1 [Alvocidib],MCL-1 expression compared to β-actin,"MCL-1; 80 nM, 1 hour post-treatment",reduced MCL-1 expression
same,MCL-1 expression compared to β-actin,"MCL-1; 80 nM, 16 hrs",nearly completely blocked
same,MCL-1 expression compared to β-actin,"MCL-1; 80 nM, up to 48 hours following treatment",inhibition of expression was maintained
same,MCL-1 expression compared to β-actin,"MCL-1; 0.1 μM, 16 hrs",reduced MCL-1 expression
same,MCL-1 expression compared to β-actin,"MCL-1; 1 μM, 16 hrs",completely blocked expression
Nc1ncn([C@@H]2O[C@H](CO)[C@@H](O)[C@H]2O)c(=O)n1 [azacitidine],EC50,"MV 4-11 cells; DMSO 24 hours, then azacitidine only 72 hours",1780 nM
same,EC50,"MV 4-11 cells; alvocidib 80 nM 24 hours, then azacitidine 72 hours, normalized to alvocidib only",641 nM
Nc1ncn([C@H]2C[C@H](O)[C@@H](CO)O2)c(=O)n1 [decitabine],Change in IC50 of decitabine with the addition of alvocidib,"MV 4-11 cells; MV4-11 cells, alvocidib 100 nM 24 hours pre-treatment, then decitabine 72 hours",~10 fold
